# Reference: PMC10009755, “Discovery and Characterization of BAY-805, a Potent and Selective Inhibitor of Ubiquitin-Specific Protease USP21” (Journal of Medicinal Chemistry, 2023)
# How the values were obtained:
# USP21 = target: T1, USP21 (Homo sapiens, UniProt Q9UK80); assay: SPR binding; conditions: single-cycle kinetics, 15 °C
# T1 construct: made in house; host or cells: E. coli BL21(DE3)
# Description: For binding analysis, a multi-cycle protocol was chosen with a contact time of 60 s, a flow rate of 30 μL/min, and a dissociation time of 200 s. Binding constants were calculated from the steady state using Biacore Insight Evaluation Software, assuming a 1:1 binding model as an average of four titrations. […] Immobilization levels were kept similar to the above. […] The running buffer of the duplicate measurements is 10 mM HEPES, pH 7.4, 150 mM NaCl, 0,005% surfactant P20 further supplemented with 2 mg/mL BSA and 1% DMSO. Affinity and kinetic analysis were performed using Biacore Insight Evaluation Software on double reference subtracted sensorgrams.
# log D measurement (HPLC) = assay type: physicochemical; conditions: reverse-phase HPLC, pH 7.5, pH 7.5, HPLC method; read-out: logD7.5
# Description: log D values at pH 7.5 were recorded using an indirect method for determining hydrophobicity constants by reverse-phase HPLC. A series of compounds with well-known log D values were used for calibration. Test compounds were injected into the same HPLC system. The lipophilicity of compounds was then assessed by comparison to the calibration curve.
# Aqueous solubility = assay type: physicochemical; conditions: PBS pH 6.5, pH 6.5, PBS pH 6.5
# Description: Test compounds were applied as DMSO solutions or directly from powder. After the addition of the buffer, solutions were shaken at rt for 24 h. The undissolved material was removed by filtration or centrifugation. The compound dissolved in the supernatant was quantified by HPLC-UV or HPLC-MS/MS.
# in vitro = in vitro ADME; conditions: human, Caco-2, pH 7.2
# Description: Caco-2 cells [purchased from the German Collection of Microorganisms and Cell Cultures (DSMZ)] were seeded at a density of 4.5 × 10^4 cells/well on 24-well insert plates [0.4 μm pore size, 0.3 cm^2 (Costar)] and grown for 13–15 days in DMEM medium supplemented with 10% fetal calf serum (FCS), 1% GlutaMAX (100×, Gibco), 100 U/mL penicillin, 100 μg/mL streptomycin (Gibco), and 1% nonessential amino acids (100×, Thermo Fischer Scientific). […] The medium was changed every 2–3 days.
# The bidirectional transport assay for the evaluation of Caco-2 permeability was undertaken in 24-well insert plates using a robotic system (Tecan). Before the assay was run, the culture medium was replaced by a transport medium (FCS-free HEPES carbonate transport buffer pH 7.2). For the assessment of monolayer integrity, the transepithelial electrical resistance (TEER) was measured. Only monolayers with a TEER of at least 400 Ω·cm^2 were used. Test compounds were pre-dissolved in DMSO and added either to the apical or basolateral compartment at a final concentration of 2 μM. The evaluation was performed in triplicate. […] The efflux ratio (ER) basolateral (B) to apical (A) was calculated by dividing Papp B–A by Papp A–B.
# NF-κB activation = assay: NF-κB reporter assay; assay type: cell-based; conditions: HEK293T cells, up to 10 μM
# Description: Yang and colleagues reported that USP21 inhibition induces NF-κB activation by preventing deubiquitination of RIP1.[15] K63 ubiquitinated RIP1 is required for NF-κB activation, and thus USP21-mediated deubiquitination of RIP1 shuts down the NF-κB pathway.
# Four hours after replating, cells were treated with compounds or DMSO (note: DMSO concentrations were kept consistent across all cells). Promega Dual-Luciferase Reporter Assay kit was then used to prepare samples for Firefly and Renilla signal measurement on a CLARIOstar microplate reader (BMG) 20 h after compound treatment. Relative luciferase units were calculated by normalizing the Firefly signal to the background Renilla signal, followed by normalization to DMSO controls of wild-type USP21.
# [1] = target: T2, C-terminal HiBiT-tagged USP21 (Homo sapiens, UniProt Q9UK80); assay: USP21 HiBiT CETSA; assay type: cell-based; conditions: 49 °C, HEK293T cells
# T2 construct: expressed in transfected cells; host or cells: HEK293T
# T2 sequence (Q9UK80 1-565): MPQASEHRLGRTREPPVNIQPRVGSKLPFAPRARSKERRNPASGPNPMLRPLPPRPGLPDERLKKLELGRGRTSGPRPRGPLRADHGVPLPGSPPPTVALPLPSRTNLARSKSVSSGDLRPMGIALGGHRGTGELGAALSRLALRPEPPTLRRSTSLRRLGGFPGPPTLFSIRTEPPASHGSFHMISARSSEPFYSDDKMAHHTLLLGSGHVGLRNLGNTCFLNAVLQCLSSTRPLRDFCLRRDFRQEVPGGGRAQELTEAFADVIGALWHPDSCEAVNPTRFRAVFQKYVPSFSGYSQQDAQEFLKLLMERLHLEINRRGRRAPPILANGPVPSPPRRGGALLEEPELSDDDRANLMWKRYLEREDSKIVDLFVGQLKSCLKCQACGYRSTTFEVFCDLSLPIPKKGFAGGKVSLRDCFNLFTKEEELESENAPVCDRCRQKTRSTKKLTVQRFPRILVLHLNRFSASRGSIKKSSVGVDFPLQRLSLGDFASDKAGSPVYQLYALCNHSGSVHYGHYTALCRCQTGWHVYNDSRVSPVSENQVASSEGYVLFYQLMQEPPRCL
# Description: In particular, we utilized a HiBiT CETSA assay format[42],[43] conducted in intact HEK293T cells. Cells were transfected with USP21 fused to a small proluminescent NanoLuc HiBiT tag, which, when complemented with the Large BiT NanoLuc fragment, produces a quantifiable luminescence signal.
# HEK293T cells were seeded in a six-well plate at 8 × 10^5 cells/well in 2 mL of DMEM supplemented with 10% FBS, penicillin (100 U/mL), and streptomycin (100 μg/mL) and transfected 4 h after seeding using an X-tremeGENE HP transfection reagent, following the manufacturer’s instructions with a total of 2 μg of plasmid constructs (C-terminally tagged USP21 HiBiT and empty pCDNA3.1 vector). […] The breathable paper adhesive film was then replaced with a PCR adhesive film, and cells were heated at indicated temperatures in an Applied Biosystems VeritiPro thermal cycler for 3 min, followed by 3 min incubation at rt before the addition of LgBiT solution (200 nM LgBiT, 2% NP-40, protease inhibitors (Roche cOmplete, ethylenediaminetetraacetic acid (EDTA)-free Protease Inhibitor) in OptiMEM no phenol red (Gibco)) to lyse cells.
# [2] = target: T3, Cholinesterase, Acetyl, ACES (Homo sapiens, UniProt P22303); assay: Eurofins Panlabs safety screen; assay type: biochemical
# T3 construct: Eurofins Panlabs
# T3 sequence (P22303 32-614): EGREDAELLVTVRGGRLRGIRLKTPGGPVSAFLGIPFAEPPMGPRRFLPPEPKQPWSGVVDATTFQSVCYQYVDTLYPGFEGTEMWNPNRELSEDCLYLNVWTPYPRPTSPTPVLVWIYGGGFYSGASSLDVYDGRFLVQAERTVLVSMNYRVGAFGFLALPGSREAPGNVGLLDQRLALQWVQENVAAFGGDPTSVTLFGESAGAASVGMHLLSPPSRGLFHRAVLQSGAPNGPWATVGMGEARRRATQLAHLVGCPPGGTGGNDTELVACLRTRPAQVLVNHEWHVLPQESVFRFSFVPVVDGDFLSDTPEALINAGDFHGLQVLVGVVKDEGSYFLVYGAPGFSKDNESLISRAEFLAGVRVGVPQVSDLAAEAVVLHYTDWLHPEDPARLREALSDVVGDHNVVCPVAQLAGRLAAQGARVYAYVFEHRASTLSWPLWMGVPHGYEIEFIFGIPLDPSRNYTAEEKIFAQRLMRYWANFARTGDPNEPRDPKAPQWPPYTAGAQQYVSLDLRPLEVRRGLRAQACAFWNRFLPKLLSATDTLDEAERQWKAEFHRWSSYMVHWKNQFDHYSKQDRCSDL
# Adrenergic α1A = target: T4, Adrenergic α1A (Homo sapiens, UniProt P35348); assay: Eurofins Panlabs safety screen; assay type: binding
# T4 construct: Eurofins Panlabs
# Adrenergic α2A = target: T5, Adrenergic α2A (Homo sapiens, UniProt P08913); assay: Eurofins Panlabs safety screen; assay type: binding
# T5 construct: Eurofins Panlabs
# T5 sequence (P08913 whole entry): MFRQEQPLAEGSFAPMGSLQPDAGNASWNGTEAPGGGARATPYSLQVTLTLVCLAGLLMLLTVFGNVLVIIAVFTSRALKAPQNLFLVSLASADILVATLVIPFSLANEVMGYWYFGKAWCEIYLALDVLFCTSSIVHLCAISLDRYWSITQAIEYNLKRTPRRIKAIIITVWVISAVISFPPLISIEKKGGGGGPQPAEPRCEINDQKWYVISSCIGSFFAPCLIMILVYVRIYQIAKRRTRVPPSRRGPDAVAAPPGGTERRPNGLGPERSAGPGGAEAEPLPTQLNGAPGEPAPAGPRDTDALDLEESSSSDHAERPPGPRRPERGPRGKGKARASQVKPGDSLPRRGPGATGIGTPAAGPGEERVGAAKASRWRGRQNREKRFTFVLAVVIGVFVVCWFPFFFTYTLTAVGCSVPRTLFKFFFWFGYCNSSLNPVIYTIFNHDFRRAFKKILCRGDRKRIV
# Adrenergic α2B = target: T6, Adrenergic α2B (Homo sapiens, UniProt P18089); assay: Eurofins Panlabs safety screen; assay type: binding
# T6 construct: Eurofins Panlabs
# Adrenergic α2C = target: T7, Adrenergic α2C (Homo sapiens, UniProt P18825); assay: Eurofins Panlabs safety screen; assay type: binding
# T7 construct: Eurofins Panlabs
# T7 sequence (P18825 whole entry): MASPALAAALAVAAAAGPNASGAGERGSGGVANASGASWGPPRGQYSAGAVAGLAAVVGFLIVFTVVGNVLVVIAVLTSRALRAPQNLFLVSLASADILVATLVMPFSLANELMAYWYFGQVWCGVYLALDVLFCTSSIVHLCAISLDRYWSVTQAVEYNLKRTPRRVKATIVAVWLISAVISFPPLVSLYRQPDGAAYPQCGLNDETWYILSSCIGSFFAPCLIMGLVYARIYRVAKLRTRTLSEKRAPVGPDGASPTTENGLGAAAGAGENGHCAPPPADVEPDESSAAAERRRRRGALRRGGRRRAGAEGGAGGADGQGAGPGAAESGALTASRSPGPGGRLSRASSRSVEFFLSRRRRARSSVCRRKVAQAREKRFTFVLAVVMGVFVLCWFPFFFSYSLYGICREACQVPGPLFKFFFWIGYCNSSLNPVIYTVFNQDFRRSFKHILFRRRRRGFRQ
# Androgen (Testosterone) = Androgen (Testosterone) (Homo sapiens, UniProt P10275); assay: Eurofins Panlabs safety screen; assay type: binding
# Cannabinoid CB1 = Cannabinoid CB1 (Homo sapiens, UniProt P21554); assay: Eurofins Panlabs safety screen; assay type: binding
# Cannabinoid CB2 = Cannabinoid CB2 (Homo sapiens, UniProt P34972); assay: Eurofins Panlabs safety screen; assay type: binding
# Sequence of Cannabinoid CB2 (P34972 whole entry): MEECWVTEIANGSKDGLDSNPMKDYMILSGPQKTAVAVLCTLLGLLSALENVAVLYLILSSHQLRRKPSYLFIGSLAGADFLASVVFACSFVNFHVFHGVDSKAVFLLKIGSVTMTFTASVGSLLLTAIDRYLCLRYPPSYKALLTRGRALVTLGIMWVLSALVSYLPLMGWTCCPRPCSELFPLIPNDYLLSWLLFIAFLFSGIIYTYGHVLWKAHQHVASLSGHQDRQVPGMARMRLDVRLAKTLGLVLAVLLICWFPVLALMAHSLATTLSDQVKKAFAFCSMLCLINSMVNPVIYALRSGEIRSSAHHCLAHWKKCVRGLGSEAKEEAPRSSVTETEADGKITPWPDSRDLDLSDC
# Dopamine D1 = Dopamine D1 (Homo sapiens, UniProt P21728); assay: Eurofins Panlabs safety screen; assay type: binding
# Sequence of Dopamine D1 (P21728 whole entry): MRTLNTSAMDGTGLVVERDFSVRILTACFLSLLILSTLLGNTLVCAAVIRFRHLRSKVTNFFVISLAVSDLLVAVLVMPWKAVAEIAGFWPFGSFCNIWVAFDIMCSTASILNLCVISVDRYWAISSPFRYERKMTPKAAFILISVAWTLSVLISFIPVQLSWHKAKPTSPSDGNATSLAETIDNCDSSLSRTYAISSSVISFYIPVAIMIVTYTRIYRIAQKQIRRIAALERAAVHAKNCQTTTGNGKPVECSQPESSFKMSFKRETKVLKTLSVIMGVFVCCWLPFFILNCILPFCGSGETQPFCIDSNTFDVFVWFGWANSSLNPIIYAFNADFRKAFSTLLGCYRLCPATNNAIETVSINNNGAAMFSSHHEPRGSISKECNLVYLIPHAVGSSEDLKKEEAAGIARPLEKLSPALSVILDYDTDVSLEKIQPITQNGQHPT
# Dopamine D2L = Dopamine D2L (Homo sapiens, UniProt P14416); assay: Eurofins Panlabs safety screen; assay type: binding
# Dopamine D2S = Dopamine D2S (Homo sapiens, UniProt P14416); assay: Eurofins Panlabs safety screen; assay type: binding
# Sequence of Dopamine D2S (P14416 1-414 isoform P14416-2): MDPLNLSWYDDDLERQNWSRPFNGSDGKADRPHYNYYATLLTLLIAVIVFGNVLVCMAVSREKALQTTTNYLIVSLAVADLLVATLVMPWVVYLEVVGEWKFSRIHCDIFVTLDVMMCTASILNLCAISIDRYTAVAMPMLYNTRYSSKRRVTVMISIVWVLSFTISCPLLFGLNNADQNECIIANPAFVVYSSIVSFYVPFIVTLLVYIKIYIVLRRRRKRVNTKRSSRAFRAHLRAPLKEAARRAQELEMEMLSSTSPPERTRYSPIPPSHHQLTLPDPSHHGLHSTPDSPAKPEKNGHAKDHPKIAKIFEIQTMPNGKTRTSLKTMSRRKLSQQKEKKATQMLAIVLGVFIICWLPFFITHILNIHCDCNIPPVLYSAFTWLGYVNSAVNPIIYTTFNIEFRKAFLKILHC
# Dopamine D3 = Dopamine D3 (Homo sapiens, UniProt P35462); assay: Eurofins Panlabs safety screen; assay type: binding
# Muscarinic M1 = target: T8, Muscarinic M1 (Homo sapiens, UniProt P11229); assay: Eurofins Panlabs safety screen; assay type: binding
# T8 construct: Eurofins Panlabs
# Muscarinic M2 = target: T9, Muscarinic M2 (Homo sapiens, UniProt P08172); assay: Eurofins Panlabs safety screen; assay type: binding
# T9 construct: Eurofins Panlabs
# Muscarinic M3 = target: T10, Muscarinic M3 (Homo sapiens, UniProt P20309); assay: Eurofins Panlabs safety screen; assay type: binding
# T10 construct: Eurofins Panlabs
# Muscarinic M4 = target: T11, Muscarinic M4 (Homo sapiens, UniProt P08173); assay: Eurofins Panlabs safety screen; assay type: binding
# T11 construct: Eurofins Panlabs
# [3] = target: T12, Nicotinic Acetylcholine α3β4 (Homo sapiens, UniProt P30926+P32297); assay: Eurofins Panlabs safety screen; assay type: binding
# T12 construct: Eurofins Panlabs
# T12 sequence (P32297 32-505): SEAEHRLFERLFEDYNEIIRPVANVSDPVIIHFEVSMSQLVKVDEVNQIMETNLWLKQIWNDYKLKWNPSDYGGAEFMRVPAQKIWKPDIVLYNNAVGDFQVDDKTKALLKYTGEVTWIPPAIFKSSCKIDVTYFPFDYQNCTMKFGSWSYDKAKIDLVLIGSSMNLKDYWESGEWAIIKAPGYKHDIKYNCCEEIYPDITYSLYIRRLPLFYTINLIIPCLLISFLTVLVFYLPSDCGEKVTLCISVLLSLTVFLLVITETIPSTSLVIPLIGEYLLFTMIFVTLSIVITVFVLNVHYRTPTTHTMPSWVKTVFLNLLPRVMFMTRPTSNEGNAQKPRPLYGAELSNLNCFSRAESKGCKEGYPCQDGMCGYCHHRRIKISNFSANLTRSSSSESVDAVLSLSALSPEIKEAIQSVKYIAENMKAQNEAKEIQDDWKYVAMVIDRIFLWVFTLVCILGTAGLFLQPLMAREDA
# T12 sequence (P30926 22-498): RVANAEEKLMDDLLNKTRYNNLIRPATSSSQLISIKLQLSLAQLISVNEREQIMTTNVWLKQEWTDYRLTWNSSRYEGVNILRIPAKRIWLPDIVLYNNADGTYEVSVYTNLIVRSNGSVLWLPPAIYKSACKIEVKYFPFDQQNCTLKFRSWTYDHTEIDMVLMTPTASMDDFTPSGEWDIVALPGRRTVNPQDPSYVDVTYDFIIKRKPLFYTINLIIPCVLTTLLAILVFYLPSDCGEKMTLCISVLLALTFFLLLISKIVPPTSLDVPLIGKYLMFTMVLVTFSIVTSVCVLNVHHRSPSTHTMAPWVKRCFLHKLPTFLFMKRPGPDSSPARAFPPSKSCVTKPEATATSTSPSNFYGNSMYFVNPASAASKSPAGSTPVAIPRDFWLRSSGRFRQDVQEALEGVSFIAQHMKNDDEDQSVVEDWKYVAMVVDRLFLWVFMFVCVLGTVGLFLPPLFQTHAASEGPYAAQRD
# Opiate δ1 (OP1, DOP) = target: T13, Opiate δ1 (OP1, DOP) (Homo sapiens, UniProt P41143); assay: Eurofins Panlabs safety screen; assay type: binding
# T13 construct: Eurofins Panlabs
# T13 sequence (P41143 whole entry): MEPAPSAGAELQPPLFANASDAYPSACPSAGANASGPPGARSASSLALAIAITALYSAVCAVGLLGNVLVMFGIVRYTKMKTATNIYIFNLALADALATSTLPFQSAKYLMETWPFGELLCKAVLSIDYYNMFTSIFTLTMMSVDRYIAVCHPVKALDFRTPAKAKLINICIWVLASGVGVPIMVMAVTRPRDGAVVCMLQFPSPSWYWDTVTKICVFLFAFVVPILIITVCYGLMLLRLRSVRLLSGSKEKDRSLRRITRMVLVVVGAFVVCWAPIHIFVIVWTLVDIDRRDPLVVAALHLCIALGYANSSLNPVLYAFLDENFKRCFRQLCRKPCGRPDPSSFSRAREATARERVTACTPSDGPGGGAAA
# Opiate μ (OP3, MOP) = target: T14, Opiate μ (OP3, MOP) (Homo sapiens, UniProt P35372); assay: Eurofins Panlabs safety screen; assay type: binding
# T14 construct: Eurofins Panlabs
# T14 sequence (P35372 whole entry): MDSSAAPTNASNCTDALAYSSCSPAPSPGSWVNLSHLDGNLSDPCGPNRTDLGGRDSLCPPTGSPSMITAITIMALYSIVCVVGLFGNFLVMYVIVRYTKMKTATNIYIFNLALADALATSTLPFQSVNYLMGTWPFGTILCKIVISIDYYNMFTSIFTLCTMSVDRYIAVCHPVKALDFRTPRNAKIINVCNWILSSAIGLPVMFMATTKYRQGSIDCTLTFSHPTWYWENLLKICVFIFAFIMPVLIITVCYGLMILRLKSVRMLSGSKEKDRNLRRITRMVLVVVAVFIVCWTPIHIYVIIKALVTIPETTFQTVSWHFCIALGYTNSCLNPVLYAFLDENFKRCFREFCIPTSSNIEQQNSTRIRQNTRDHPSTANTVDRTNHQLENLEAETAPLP
# [4] = target: T15, Serotonin (5-Hydroxytryptamine) 5-HT1A (Homo sapiens, UniProt P08908); assay: Eurofins Panlabs safety screen; assay type: binding
# T15 construct: Eurofins Panlabs
# [5] = target: T16, Serotonin (5-Hydroxytryptamine) 5-HT2A (Homo sapiens, UniProt P28223); assay: Eurofins Panlabs safety screen; assay type: binding
# T16 construct: Eurofins Panlabs
# T16 sequence (P28223 whole entry): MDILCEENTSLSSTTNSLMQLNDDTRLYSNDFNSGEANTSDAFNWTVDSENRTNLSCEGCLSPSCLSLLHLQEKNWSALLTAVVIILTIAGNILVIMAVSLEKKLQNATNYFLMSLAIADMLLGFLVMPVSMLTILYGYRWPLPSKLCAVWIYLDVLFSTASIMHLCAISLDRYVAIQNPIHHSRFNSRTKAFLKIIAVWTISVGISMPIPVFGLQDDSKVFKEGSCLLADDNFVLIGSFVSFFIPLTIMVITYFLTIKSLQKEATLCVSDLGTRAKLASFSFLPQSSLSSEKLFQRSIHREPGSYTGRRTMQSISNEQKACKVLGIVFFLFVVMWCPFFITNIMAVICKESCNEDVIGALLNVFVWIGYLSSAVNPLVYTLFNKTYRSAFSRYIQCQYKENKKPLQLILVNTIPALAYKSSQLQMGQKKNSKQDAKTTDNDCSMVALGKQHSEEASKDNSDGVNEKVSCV
# [6] = target: T17, Serotonin (5-Hydroxytryptamine) 5-HT2B (Homo sapiens, UniProt P41595); assay: Eurofins Panlabs safety screen; assay type: binding
# T17 construct: Eurofins Panlabs
# [7] = target: T18, Serotonin (5-Hydroxytryptamine) 5-HT2C (Homo sapiens, UniProt P28335); assay: Eurofins Panlabs safety screen; assay type: binding
# T18 construct: Eurofins Panlabs
# Fms(h) = target: T19, Fms(h) (Homo sapiens, UniProt P07333); assay: Eurofins kinase panel; assay type: biochemical
# T19 construct: purchased Eurofins (formerly Millipore/Upstate) KinaseProfiler
# PRP4(h) = target: T20, PRP4(h) (Homo sapiens, UniProt Q13523); assay: Eurofins kinase panel; assay type: biochemical
# T20 construct: purchased Eurofins (formerly Millipore/Upstate) KinaseProfiler
smiles,measurement,setting,value
"N#Cc1ccc(Cc2nnc(NC(=O)[C@@H](CO)NC(=O)C3(C(F)(F)F)CCCCC3)s2)cc1 [Compound 18, OC[C@@H](NC(=O)C1(CCCCC1)C(F)(F)F)C(=O)Nc2nnc(Cc3ccc(cc3)C#N)s2]",Kd,USP21,0.0058 µM
same,chromatographic logD,log D measurement (HPLC),2.5
same,solubility at 24 h,Aqueous solubility,91.2 µM
same,"Papp A→B at 2 h, 2 µM","in vitro; 2 μM, 2 h",14 nm/s
same,"efflux ratio at 2 h, 2 µM","in vitro; Papp B–A / Papp A–B, read-out: Caco-2 efflux ratio (ER)",14
same,NF-κB activation (in words),NF-κB activation,cellular activity was not observed
same,cellular thermal stabilization of USP21 (in words),[1],strong cellular target engagement
"CC(C)C[C@@H](NC(=O)C1(C(F)(F)F)CCCCC1)C(=O)Nc1nnc(Cc2ccc(C#N)cc2)s1 [Compound 21, N-[(1R)-1-[[5-[(4-Cyanophenyl)methyl]-1,3,4-thiadiazol-2-yl]carbamoyl]-3-methyl-butyl]-1-(trifluoromethyl)cyclohexanecarboxamide]",IC50,[2],7.61 µM
same,inhibition at 10 µM,[2],72%
same,inhibition at 0.1 µM,"[2]; IC50 determination, 0.1 µM",15%
same,inhibition at 0.3 µM,"[2]; IC50 determination, 0.3 µM",16%
same,inhibition at 1 µM,"[2]; IC50 determination, 1 µM",11%
same,inhibition at 3 µM,"[2]; IC50 determination, 3 µM",4%
same,inhibition at 10 µM,[2]; IC50 determination,74%
same,inhibition at 30 µM,"[2]; IC50 determination, 30 µM",74%
same,inhibition at 10 µM,Adrenergic α1A,1%
same,inhibition at 10 µM,Adrenergic α2A,14%
same,inhibition at 10 µM,Adrenergic α2B,4%
same,inhibition at 10 µM,Adrenergic α2C,6%
same,inhibition at 10 µM,Androgen (Testosterone),4%
same,inhibition at 10 µM,Cannabinoid CB1,8%
same,inhibition at 10 µM,Cannabinoid CB2,1%
same,inhibition at 10 µM,Dopamine D1,-3%
same,inhibition at 10 µM,Dopamine D2L,8%
same,inhibition at 10 µM,Dopamine D2S,24%
same,inhibition at 10 µM,Dopamine D3,9%
same,inhibition at 10 µM,Muscarinic M1,18%
same,inhibition at 10 µM,Muscarinic M2,2%
same,inhibition at 10 µM,Muscarinic M3,7%
same,inhibition at 10 µM,Muscarinic M4,-4%
same,inhibition at 10 µM,[3],-3%
same,inhibition at 10 µM,"Opiate δ1 (OP1, DOP)",-5%
same,inhibition at 10 µM,"Opiate μ (OP3, MOP)",-1%
same,inhibition at 10 µM,[4],2%
same,inhibition at 10 µM,[5],4%
same,inhibition at 10 µM,[6],3%
same,inhibition at 10 µM,[7],-5%
same,inhibition at 10 µM,Fms(h),3.41%
same,inhibition at 10 µM,PRP4(h),8.18%
